Test results reported in article PMC7794397, “Curbing gastrointestinal infections by defensin fragment modifications without harming commensal microbiota” (Communications Biology, 2021).
Values after ≈ are worked out from the molar mass of the structure shown. Positions of bridges follow the written chain, without caps; N, C: chain ends. Non-standard residues stand in square brackets, D forms with d. Residues, ends and D or L forms follow the SMILES beside them. *: point of attachment. Palmitoyl = CCCCCCCCCCCCCCCC(=O)*; X3 = CC[C@H](C)CCCCC(=O)*; Dab = NCC[C@H](N)C(=O)O

Assays:
A. baumannii = assay: Antibiogram of ESKAPE pathogens; assay type: cell-based; conditions: column assigned by order in flattened table
Source text: (§1) Supplementary Table 1. Antibiogram of ESKAPE pathogens used in this study.
(§2) Bacteria susceptible to all (blue color) or intermediate/resistant to at least one (red color) of antibiotics per class following the EUCAST breakpoints. Black color is shown if the susceptibility to agents in that class is not assessed. Values are minimal inhibition concentrations (MIC) in µg/ml or for Chloramphenicol in diameter (mm). […]

E. coli = assay: Antibiogram of ESKAPE pathogens; assay type: cell-based; conditions: column assigned by order in flattened table; for MIC: Escherichia coli
Source text: as §1, §2

ESKAPE pathogens = assay: organism not typed; conditions: one strain of A. baumannii, P. aeruginosa or E. coli, not assignable
Source text: as §1, §2

K. pneumoniae = conditions: one K. pneumoniae strain, which one not assignable
Source text: as §1, §2

[1] = test system: A. baumannii DSM30007 4-MRGN
Experimental: Bactericidal activity was assessed by broth microdilution assay. Log-phase bacteria were collected by centrifugation (2500 rpm, 10 min, 4 °C), washed twice with 10 mM sodium phosphate buffer containing 1% (w/v) TSB and the optical density at 600 nm was adjusted to 0.1. Approximately 5 × 10^5 CFU/ml bacteria were incubated with serial peptide concentrations (1.17–150 µM) in a final volume of 100 µl in 10 mM sodium phosphate buffer containing 1% (w/v) TSB for 2 h at 37 °C. After incubation, 100 µl of 6% TSB (w/v) were added and absorbance was measured at 600 nm (Tecan, Switzerland) and monitored for 18 h. Afterward, 100 µl per well were plated on LB agar to determine the numbers of viable bacteria microbiologically. Bactericidal activity is expressed as the LC99.9, the lowest concentration that killed ≥99.9 % of bacteria.

[2] = test system: several pathogenic bacteria; assay: Radial diffusion assay, all tested strains; assay type: cell-based
Experimental: (§3) Antimicrobial activity was analyzed by radial diffusion assay. Log-phase bacteria were cultivated for up to 18 h in TSB (TSB, Becton Dickinson, USA), washed and diluted to 4 × 10^6 CFU in 10 ml agar. Bacteria were incubated in 10 ml of 10 mM sodium phosphate, pH 7.4, containing 0.3 mg/ml of TSB powder and 1% (w/v) low EEO-agarose (AppliChem). 1 µg of each lipopeptide was pipetted into punched wells in a final volume of 4 µl and diffused into the gel for 3 h at 37 °C. After that, a nutrient-rich gel with 6% TSB (w/v) and 1% agarose in 10 mM sodium phosphate buffer was poured on top of the first gel and incubated for up to 24 h at 37 °C. Then the diameter of inhibition zones was measured.

S. Typhimurium = assay type: cell-based; conditions: radial diffusion assay
Experimental: as §3

[3] = test system: multidrug resistant bacteria belonging to the ESKAPE pathogen panel; assay type: cell-based; conditions: broth microdilution, ESKAPE panel
Experimental: Bactericidal activity was assessed by broth microdilution assay. […] After incubation, 100 µl of 6% TSB (w/v) were added and absorbance was measured at 600 nm (Tecan, Switzerland) and monitored for 18 h. Afterward, 100 µl per well were plated on LB agar to determine the numbers of viable bacteria microbiologically. Bactericidal activity is expressed as the LC99.9, the lowest concentration that killed ≥99.9 % of bacteria.

CC(C)(O/N=C(\C(=O)N[C@@H]1C(=O)N2C(C(=O)[O-])=C(C[n+]3ccccc3)CS[C@H]12)c1csc(N)n1)C(=O)O [Ceftazidim]
MIC (antibiogram) (A. baumannii; strain DSM30007): ≥ 64 µg/mL | MIC (antibiogram) (E. coli; strain DSM682): ≥ 64 µg/mL | MIC (antibiogram) (E. coli; strain DSM8695): ≤ 1 µg/mL

CC[C@H](C)CCCCC(=O)N[C@@H](CCN)C(=O)N[C@H](C(=O)N[C@@H](CCN)C(=O)N[C@H]1CCNC(=O)[C@H]([C@@H](C)O)NC(=O)[C@H](CCN)NC(=O)[C@H](CCN)NC(=O)[C@H](CC(C)C)NC(=O)[C@@H](CC(C)C)NC(=O)[C@H](CCN)NC1=O)[C@@H](C)O [Colistin] (X3-[Dab]T[Dab][Dab][Dab][dL]L[Dab][Dab]T; lactam 4-C (inferred); N-terminus assumed)
MIC (antibiogram) (ESKAPE pathogens): 1 µg/mL (≈ 0.855 µM) | MIC (antibiogram) (K. pneumoniae): 0.25 µg/mL (≈ 0.214 µM)

CCCCCCCCCCCCCCCC(=O)N[C@@H](CCCNC(=N)N)C(=O)NCC(=O)N[C@@H](CCCCN)C(=O)N[C@@H](C)C(=O)N[C@@H](CCCCN)C(=O)N[C@@H](CS)C(=O)N[C@@H](CS)C(=O)N[C@@H](CCCCN)C(=O)O [Pam-2] (Palmitoyl-RGKAKCCK-OH; C-terminus assumed)
growth inhibition of colistin- and tigecycline-resistant isolate (in words) [1]: inhibited the growth | antimicrobial activity (in words) [2]: potent inhibition | inhibition of S. Typhimurium growth (in words) (S. Typhimurium): consistently inhibited | bactericidal activity (in words) [3]: highly effective

CN(C)c1cc(NC(=O)CNC(C)(C)C)c(O)c2c1C[C@H]1C[C@H]3[C@H](N(C)C)C(O)=C(C(N)=O)C(=O)[C@@]3(O)C(O)=C1C2=O [Tigecycline]
MIC (A. baumannii; Acinetobacter baumannii, strain ECII): 4 µg/mL (≈ 6.83 µM) | MIC (E. coli; strain DSM682): ≤ 0.5 µg/mL | MIC (E. coli; strain DSM8695): ≤ 0.5 µg/mL
